From ChEMBL document CHEMBL5661943, “ASAP - In vitro antiviral effect” (2024) come the findings set out here.

Several values for one entry are separate records, joined by “and”; a condition that tells them apart may be missing. Identical values can stand only once.

Assay [1] relates to Zika virus. Briefly: EC50 is reported via analysis of immunofluorescence staining. The assay has been performed by Icahn School of Medicine at Mount Sinai. Format: functional, organism-based, Chlorocebus sabaeus, VeroE6/TMPRSS2. Particulars: for EC90: P-gp concentration 2 uM, P-gp inhibitor Elacidar.
Assay [2] has as its system dengue virus type 2. Briefly: Functional immunofluorescence assay to measure dose dependent changes in antiviral-drug inhibitory efficacy against Dengue virus type 2 Thailand/16681/84 in Vero E6/TMPRSS2 cells (cotreated with P-gp inhibitor, Elacridar). Cells are treated with antiviral candidates that are serially diluted, following infection, cells are fixed. EC50 is reported via analysis of immunofluorescence staining. The assay has been performed by Icahn School of Medicine at Mount Sinai. Format: organism-based, Chlorocebus sabaeus, VeroE6/TMPRSS2. The conditions noted are these: Dengue virus, VeroE6/TMPRSS2.

In assay [3] the test system is Zika virus. Briefly: Functional CPE-based assay to measure dose dependent changes in antiviral-drug inhibitory efficacy against Zika virus MR766 in Vero E6 miRFP670 cells (cotreated with P-gp inhibitor, CP100356). Cells are treated with antiviral candidates that are serially diluted. EC50 is reported via analysis of MTS assay as a readout of CPE. The assay has been performed by KU Leuven. Format: organism-based, Chlorocebus sabaeus, Vero C1008. The conditions noted are these: Zika virus; for EC90: P-gp concentration 500 nM, P-gp inhibitor CP100356. A general note: Tetrazolium assays rely on reduction of a dye to a coloured formazan, in cell work by metabolically active cells.

Assay [4] deals with dengue virus type 2. Briefly: Functional assay to measure dose dependent changes in antiviral-drug inhibitory efficacy against Dengue virus type 2 New Guinea C in Vero E6 miRFP670 cells (cotreated with P-gp inhibitor, CP100356). Cells are treated with antiviral candidates that are serially diluted, following infection, cells are fixed. EC50 is reported via analysis of fluorescence intensity using high-content imager. The …. Particulars: for EC90: P-gp concentration 500 nM, P-gp inhibitor CP100356. Format: organism-based, Chlorocebus sabaeus, Vero C1008.

For `Cc1cc(C(=O)Nc2ccc3c(c2)CNC3)c2cn[nH]c2c1`, the EC90 in the assay with Zika virus [1] (Baseline response 0 %, Hill slope -2.011, Maximum measured 89.225 %, Maximum response 60 %, Minimum measured 14.739 %, R squared 0.55) is more than 50 µM; in the assay on Zika virus [1] (Zika virus, VeroE6/TMPRSS2, Baseline response 0 %, Hill slope -0.435, Maximum measured 146.607 %, Maximum response 100 %, Minimum measured 37.409 %, R squared 0.47), more than 50 µM; in the assay on dengue virus type 2 [2] (Baseline response 0 %, Hill slope -0.131, Maximum measured 111.871 %, Maximum response 100 %, Minimum measured 74.867 %, P-gp concentration 2 uM, R squared 0.056, P-gp inhibitor Elacidar), more than 16.7 µM; in the assay on Zika virus [3] (Vero C1008, Baseline response 0 %, EC90 CI (lower) 4.895 uM, EC90 CI (upper) 50.446 uM, Hill slope 3.132, Maximum measured 172.887 %, Maximum response 100 %, Minimum measured 3.006 %, R squared 0.777), 15.7 µM; with dengue virus type 2 [4] (Dengue virus, Vero C1008, Maximum measured 131.325 %, Minimum measured 92.066 %) it was more than 50 µM. Besides, the EC50 with Zika virus [1] (veroe6/tmprss2) is 4.92 µM and 30 µM; in the assay with dengue virus type 2 [2], more than 16.7 µM; in the assay on Zika virus [3] (Vero C1008), 7.79 µM; with dengue virus type 2 [4] (Dengue virus, Vero C1008), more than 50 µM.

In the case of `O=C(Nc1ccc2c(c1)CNC2)c1cc(C(F)(F)F)cc2[nH]ccc12`, the EC50 in the assay with Zika virus [1] (Zika virus, VeroE6/TMPRSS2) is more than 50 µM; in the assay on dengue virus type 2 [2], more than 16.7 µM; with Zika virus [3] (Vero C1008) it was 45.6 µM; in the assay with dengue virus type 2 [4] (Dengue virus, Vero C1008) it was more than 50 µM. The EC90 in the assay with Zika virus [1] (Zika virus, VeroE6/TMPRSS2, Maximum measured 116.047 %, Minimum measured 72.993 %) was more than 50 µM; in the assay with dengue virus type 2 [2] (Baseline response 0 %, Hill slope -15.878, Maximum measured 193.651 %, Maximum response 148.635 %, Minimum measured 63.423 %, P-gp concentration 2 uM, R squared 0.446, P-gp inhibitor Elacidar), more than 16.7 µM; in the assay on Zika virus [3] (Vero C1008, Baseline response 0 %, Hill slope 3.148, Maximum measured 56.87 %, Maximum response 100 %, Minimum measured -2.102 %, R squared 0.945), more than 50 µM; with dengue virus type 2 [4] (Dengue virus, Vero C1008, Baseline response 0 %, Hill slope -0.556, Maximum measured 107.588 %, Maximum response 100 %, Minimum measured 39.301 %, R squared 0.196), more than 50 µM.

Consider `O=C(Nc1ccc2c(c1)CCNCC2)c1cc(Cl)cc2[nH]ncc12`, for which the EC50 with Zika virus [1] (Zika virus, VeroE6/TMPRSS2) is more than 50 µM; in the assay on dengue virus type 2 [2], more than 50 µM; with Zika virus [3] (Vero C1008), more than 50 µM; in the assay on dengue virus type 2 [4] (Dengue virus, Vero C1008) it was more than 25 µM. For the same compound, the EC90 with Zika virus [1] (Zika virus, VeroE6/TMPRSS2, Maximum measured 112.155 %, Minimum measured 46.888 %) was more than 50 µM; in the assay on dengue virus type 2 [2] it was more than 50 µM; in the assay with Zika virus [3] (Vero C1008, Maximum measured -0.637 %, Minimum measured -2.713 %), more than 50 µM; in the assay with dengue virus type 2 [4] (Dengue virus, Vero C1008, Baseline response 0 %, Hill slope -0.681, Maximum measured 107.454 %, Maximum response 100 %, Minimum measured 77.093 %, R squared 0.152) it was more than 25 µM.

For the compound `O=C(Nc1ccc2c(n1)CNC2)c1cc(Cl)cc2[nH]ncc12`, the EC50 is 5.29 µM in the assay on Zika virus [1] (Zika virus, VeroE6/TMPRSS2); 33.2 µM with dengue virus type 2 [2]; more than 50 µM in the assay with Zika virus [3] (Vero C1008); more than 50 µM in the assay on dengue virus type 2 [4] (Dengue virus, Vero C1008). The EC90 with Zika virus [1] (Zika virus, VeroE6/TMPRSS2, Baseline response 0 %, Hill slope -0.136, Maximum measured 80.309 %, Maximum response 100 %, Minimum measured 35.788 %, R squared 0.184) was more than 50 µM; in the assay on dengue virus type 2 [2] (Baseline response 0 %, Hill slope -0.91, Maximum measured 153.42 %, Maximum response 100 %, Minimum measured 44.335 %, P-gp concentration 2 uM, R squared 0.461, P-gp inhibitor Elacidar) it was more than 50 µM; in the assay on Zika virus [3] (Vero C1008, Baseline response 0 %, Hill slope 0.276, Maximum measured 8.826 %, Maximum response 100 %, Minimum measured 2.871 %, R squared 0.346), more than 50 µM; with dengue virus type 2 [4] (Dengue virus, Vero C1008, Baseline response 0 %, Hill slope 0.339, Maximum measured 101.822 %, Maximum response 100 %, Minimum measured 73.077 %, R squared 0.116) it was more than 50 µM.

As to `Cc1ccc(NC(=O)c2cc(Cl)cc3[nH]ncc23)cc1CN`, the EC50 is 23.7 µM with Zika virus [1] (Zika virus, VeroE6/TMPRSS2); more than 50 µM in the assay with dengue virus type 2 [2]; more than 50 µM in the assay on Zika virus [3] (Vero C1008); 29.2 µM in the assay on dengue virus type 2 [4] (Dengue virus, Vero C1008). Also, the EC90 with Zika virus [1] (Zika virus, VeroE6/TMPRSS2, Baseline response 0 %, Hill slope -0.507, Maximum measured 128.919 %, Maximum response 100 %, Minimum measured 43.47 %, R squared 0.43) was more than 50 µM; in the assay on dengue virus type 2 [2] (Baseline response 0 %, Hill slope -2.664, Maximum measured 202.734 %, Maximum response 169.492 %, Minimum measured 72.11 %, P-gp concentration 2 uM, R squared 0.716, P-gp inhibitor Elacidar) it was more than 50 µM; with Zika virus [3] (Vero C1008, Maximum measured -0.519 %, Minimum measured -6.318 %) it was more than 50 µM; with dengue virus type 2 [4] (Dengue virus, Vero C1008, Baseline response 0 %, Hill slope -1.708, Maximum measured 106.876 %, Maximum response 100 %, Minimum measured 12.632 %, R squared 0.516), more than 50 µM.

`N#Cc1cc(C(=O)Nc2ccc3c(c2)CNC3)cc(C(F)(F)F)c1`: the EC50 in the assay with Zika virus [1] (Zika virus, VeroE6/TMPRSS2) was more than 50 µM; in the assay on dengue virus type 2 [2], 23.5 µM; with Zika virus [3] (Vero C1008), more than 50 µM; in the assay on dengue virus type 2 [4] (Dengue virus, Vero C1008) it was more than 50 µM. For the same compound, the EC90 with Zika virus [1] (Zika virus, VeroE6/TMPRSS2, Maximum measured 132.778 %, Minimum measured 43.807 %) is more than 50 µM; in the assay on dengue virus type 2 [2] (Baseline response 0 %, Hill slope -2.224, Maximum measured 139.741 %, Maximum response 100 %, Minimum measured 16.816 %, P-gp concentration 2 uM, R squared 0.66, P-gp inhibitor Elacidar), more than 50 µM; in the assay with Zika virus [3] (Vero C1008, Baseline response 0 %, Hill slope 0.826, Maximum measured 10.885 %, Maximum response 100 %, Minimum measured 0.969 %, R squared 0.373), more than 50 µM; in the assay with dengue virus type 2 [4] (Dengue virus, Vero C1008, Baseline response 0 %, Hill slope 0.474, Maximum measured 101.337 %, Maximum response 100 %, Minimum measured 73.182 %, R squared 0.159), more than 50 µM.

Take `O=C(Nc1cc(Cl)cc(C(=O)Nc2ccc(-n3nn[nH]c3=O)cc2)c1)OCc1ccccc1`: the EC50 is 49.1 µM with Zika virus [1] (Zika virus, VeroE6/TMPRSS2); 11.4 µM in the assay with dengue virus type 2 [2]; more than 50 µM with Zika virus [3] (Vero C1008); 7.29 µM and 48.8 µM in the assay on dengue virus type 2 [4] (vero c1008). The EC90 with Zika virus [1] (Zika virus, VeroE6/TMPRSS2, Baseline response 0 %, Hill slope -16.502, Maximum measured 156.276 %, Maximum response 100 %, Minimum measured 42.402 %, R squared 0.326) is more than 50 µM; in the assay on dengue virus type 2 [2] (Baseline response 0 %, Hill slope -0.45, Maximum measured 123.141 %, Maximum response 100 %, Minimum measured 41.064 %, P-gp concentration 2 uM, R squared 0.456, P-gp inhibitor Elacidar) it was more than 16.7 µM; in the assay on Zika virus [3] (Vero C1008, Baseline response 0 %, Hill slope 1.628, Maximum measured 15.335 %, Maximum response 100 %, Minimum measured -0.05 %, R squared 0.878), more than 50 µM; in the assay with dengue virus type 2 [4] (Baseline response 0 %, EC90 CI (lower) 3.172 uM, EC90 CI (upper) 10.269 uM, Hill slope -8.96, Maximum measured 107.351 %, Maximum response 100 %, Minimum measured 0.837 %, R squared 0.832), 9.32 µM; in the assay on dengue virus type 2 [4] (Baseline response 0 %, Hill slope -35.644, Maximum measured 130.696 %, Maximum response 100 %, Minimum measured 29.339 %, R squared 0.657) it was more than 50 µM.

On to `CCc1cc(C(=O)Nc2cccc(-c3nnn[nH]3)c2)sc1-c1ccc(Cl)cc1`, for which the EC50 is more than 16.7 µM with Zika virus [1] (Zika virus, VeroE6/TMPRSS2); more than 16.7 µM with dengue virus type 2 [2]; more than 50 µM in the assay on Zika virus [3] (Vero C1008); more than 25 µM in the assay with dengue virus type 2 [4] (Dengue virus, Vero C1008). Besides, the EC90 with Zika virus [1] (Zika virus, VeroE6/TMPRSS2, Maximum measured 109.494 %, Minimum measured 75.609 %) was more than 16.7 µM; with dengue virus type 2 [2] (Baseline response 0 %, Hill slope -0.101, Maximum measured 96.419 %, Maximum response 100 %, Minimum measured 50.045 %, P-gp concentration 2 uM, R squared 0.073, P-gp inhibitor Elacidar), more than 16.7 µM; in the assay with Zika virus [3] (Vero C1008, Baseline response 0 %, Hill slope -0.614, Maximum measured 5.848 %, Maximum response 100 %, Minimum measured -4.216 %, R squared 0.418), more than 50 µM; in the assay on dengue virus type 2 [4] (Dengue virus, Vero C1008, Baseline response 0 %, Hill slope 0.831, Maximum measured 164.159 %, Maximum response 100 %, Minimum measured 71.563 %, R squared 0.225), more than 25 µM.

By EC90 is commonly meant the point of the concentration-response curve where the effect stands at 90%. Broadly, the EC50 is the midpoint of the concentration-response curve.
